Laboratory results reported in patent publication US9688695B2, “Imidazothiadiazole and imidazopyrazine derivatives as protease activated receptor 4 (PAR4) inhibitors for treating platelet aggregation” (BRISTOL-MYERS SQUIBB COMPANY, priority 2012, dated 2017).

Each compound was assayed against PAR4 (Homo sapiens (Human), UniProt Q96RI0) (assay: FLIPR assay in PAR4-expressing HEK293 cells (PAR4 antagonist activity, calcium mobilization)). Details: H-Ala-Phe(4-F)-Pro-Gly-Trp-Leu-Val-Lys-Asn-Gly-NH2-induced calcium mobilization.
Sequence of PAR4 (Q96RI0 18-385): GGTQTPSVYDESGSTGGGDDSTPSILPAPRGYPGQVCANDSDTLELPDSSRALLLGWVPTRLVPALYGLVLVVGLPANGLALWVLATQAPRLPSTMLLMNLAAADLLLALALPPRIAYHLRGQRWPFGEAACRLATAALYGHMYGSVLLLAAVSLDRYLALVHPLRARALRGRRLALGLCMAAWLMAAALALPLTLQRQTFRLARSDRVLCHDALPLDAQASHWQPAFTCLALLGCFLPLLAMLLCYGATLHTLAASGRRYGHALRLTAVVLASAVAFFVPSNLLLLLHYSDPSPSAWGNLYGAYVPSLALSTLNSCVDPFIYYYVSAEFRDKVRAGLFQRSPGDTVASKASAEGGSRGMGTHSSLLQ
Format: cell-based
Outline: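 HEK293 EBNA cells stably expressing human PAR4 (also endogenous PAR1) preincubated 30 min at room temperature with compound in HBSS/10 mM HEPES, 0.67% DMSO final. PAR4 agonist peptide then added and intracellular calcium mobilization monitored by fluorescence.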

EC50 [nM]	Structure (SMILES)
0.78	COc1cc(OCc2csc(C3CCN(C(=O)c4ccccc4)CC3)n2)c2cc(-c3cn4nc(OC)sc4n3)oc2c1 [Example 110, (4-(4-(((6-Methoxy-2-(2-methoxyimidazo[2,1-b][1,3,4]thiadiazol-6-yl)benzofuran-4-yl)oxy)methyl)thiazol-2-yl)piperidin-1-yl)(phenyl)methanone]
0.45	COc1cc(OCc2csc(C3(OC)CCOCC3)n2)c2cc(-c3cn4nc(OC)sc4n3)oc2c1 [Example 120, 2-Methoxy-6-(6-methoxy-4-((2-(4-methoxytetrahydro-2H-pyran-4-yl)thiazol-4-yl)methoxy)benzofuran-2-yl)imidazo[2,1-b][1,3,4]thiadiazole]
0.62	COc1cc(OCc2csc(-c3ccc(C(=O)N(C)C)cc3)n2)c2cc(-c3cn4nc(C)ccc4n3)oc2c1 [Example 223]
0.72	COc1nn2cc(-c3cc4c(OCc5csc(-c6ccc(C(=O)NCC(F)(F)F)cc6)n5)cc(F)cc4o3)nc2s1 [Example 181, 4-(4-(((6-Fluoro-2-(2-methoxyimidazo[2,1-b][1,3,4]thiadiazol-6-yl)benzofuran-4-yl)oxy)methyl)thiazol-2-yl)-N-(2,2,2-trifluoroethyl)benzamide]
1.1	COc1cc(OC(C)c2csc(-c3ccccc3)n2)c2cc(-c3cn4nc(OC)sc4n3)oc2c1 (centres unmarked) [Example 83, 2-Methoxy-6-(6-methoxy-4-(1-(2-phenylthiazol-4-yl)ethoxy)benzofuran-2-yl)imidazo[2,1-b][1,3,4]thiadiazole]
1.2	COc1cc(OCc2csc(-c3ccc(C(=O)N4CCC4)cc3)n2)c2cc(-c3cn4nc(OC)sc4n3)oc2c1 [Example 289]
1.2	COc1cc(OCc2csc(C3(F)CCC(F)(F)CC3)n2)c2cc(-c3cn4nc(OC)sc4n3)oc2c1 [Example 136, 2-Methoxy-6-(6-methoxy-4-((2-(1,4,4-trifluorocyclohexyl)thiazol-4-yl)methoxy)benzofuran-2-yl)imidazo[2,1-b][1,3,4]thiadiazole]
2.6	COc1cncc(-c2nc(COc3cc(OC)cc4oc(-c5cn6nc(OC)sc6n5)cc34)cs2)c1 [Example 79]
0.86	COc1cc(OCc2csc(C3CCN(S(=O)(=O)C(C)C)CC3)n2)c2cc(-c3cn4nc(OC)sc4n3)oc2c1 [Example 111, 6-(4-((2-(1-(Isopropylsulfonyl)piperidin-4-yl)thiazol-4-yl)methoxy)-6-methoxybenzofuran-2-yl)-2-methoxyimidazo[2,1-b][1,3,4]thiadiazole]
1.7	COc1cc(OCc2csc(C3(c4ccc(Br)cc4)CCOCC3)n2)c2cc(-c3cn4nc(OC)sc4n3)oc2c1 [Example 153, 6-(4-((2-(4-(4-Bromophenyl)tetrahydro-2H-pyran-4-yl)thiazol-4-yl)methoxy)-6-methoxybenzofuran-2-yl)-2-methoxyimidazo[2,1-b][1,3,4]thiadiazole]
0.96	COCCC(C)(F)c1nc(COc2cc(OC)cc3oc(-c4cn5nc(OC)sc5n4)cc23)cs1 (centres unmarked) [Example 147]
0.82	CCC(O)(c1nc(COc2cc(OC)cc3oc(-c4cn5nc(OC)sc5n4)cc23)cs1)C(F)(F)F (centres unmarked) [Example 138]
0.52	COc1cc(OCc2csc(N3CCSCC3)n2)c2cc(-c3cn4nc(OC)sc4n3)oc2c1 [Example 53]
0.31	COc1cc(OCc2csc(C(C)(O)C3CCCCC3)n2)c2cc(-c3cn4nc(OC)sc4n3)oc2c1 (centres unmarked) [Example 142]
2.3	COc1cc(OCc2csc(N3CCN(S(=O)(=O)C(C)C)CC3)n2)c2cc(-c3cn4nc(OC)sc4n3)oc2c1 [Example 102, 6-(4-((2-(4-(Isopropylsulfonyl)piperazin-1-yl)thiazol-4-yl)methoxy)-6-methoxybenzofuran-2-yl)-2-methoxyimidazo[2,1-b][1,3,4]thiadiazole]
0.42	COc1cc(OCc2csc(-c3ccc(C(=O)N(C)CCO)cc3)n2)c2cc(-c3cn4nc(OC)sc4n3)oc2c1 [Example 300]
92	COc1cc(OCc2csc(-c3ccc(C(=O)NC4COC4)cc3)n2)c2cc(-c3cn4nc(OC)sc4n3)oc2c1 [Example 295]
0.29	COc1cc(OCc2csc(C3(F)CCOCC3)n2)c2cc(-c3cn4nc(C)ccc4n3)oc2c1 [Example 212, 2-(4-Fluorotetrahydro-2H-pyran-4-yl)-4-(((6-methoxy-2-(6-methylimidazo[1,2-b]pyridazin-2-yl)benzofuran-4-yl)oxy)methyl)thiazole]
3.6	COc1cc(OCc2csc(N(C)CCC#N)n2)c2cc(-c3cn4nc(C)ccc4n3)oc2c1 [Example 250]
0.79	COc1cc(OCc2csc(C3(O)CCC(F)(F)CC3)n2)c2cc(-c3cn4nc(OC)sc4n3)oc2c1 [Example 135, 4,4-Difluoro-1-(4-(((6-methoxy-2-(2-methoxyimidazo[2,1-b][1,3,4]thiadiazol-6-yl)benzofuran-4-yl)oxy)methyl)thiazol-2-yl)cyclohexanol]
0.86	COc1cc(OCc2csc(-c3ccc(OC(F)(F)F)cc3)n2)c2cc(-c3cn4nc(C)ccc4n3)oc2c1 [Example 210, 4-(((6-Methoxy-2-(6-methylimidazo[1,2-b]pyridazin-2-yl)benzofuran-4-yl)oxy)methyl)-2-(4-(trifluoromethoxy)phenyl)thiazole]

EC50 [nM]	Structure (SMILES)
0.42	COc1cc(OCc2nc(-c3cccc(COC(C)=O)c3)sc2C)c2cc(-c3cn4nc(OC)sc4n3)oc2c1 [Example 76]
0.9	COc1cc(OCc2csc(-c3ccc(C(=O)NC(C)(C)C)cc3)n2)c2cc(-c3cn4nc(OC)sc4n3)oc2c1 [Example 41, N-(tert-Butyl)-4-(4-(((6-methoxy-2-(2-methoxyimidazo[2,1-b][1,3,4]thiadiazol-6-yl)benzofuran-4-yl)oxy)methyl)thiazol-2-yl)benzamide]
0.37	COc1cc(OCc2csc(C3(O)CCCCC3)n2)c2cc(-c3cn4nc(OC)sc4n3)oc2c1 [Example 133, 1-(4-(((6-Methoxy-2-(2-methoxyimidazo[2,1-b][1,3,4]thiadiazol-6-yl)benzofuran-4-yl)oxy)methyl)thiazol-2-yl)cyclohexanol]
0.72	COc1cc(OCc2csc(C3(F)CC(C)OC(C)C3)n2)c2cc(-c3cn4nc(OC)sc4n3)oc2c1 (centres unmarked) [Example 122, 6-(4-((2-(4-Fluoro-2,6-dimethyltetrahydro-2H-pyran-4-yl)thiazol-4-yl)methoxy)-6-methoxybenzofuran-2-yl)-2-methoxy-imidazo[2,1-b][1,3,4]thiadiazole]
0.73	COc1cc(OCc2csc(C(O)(C3CCCCC3)C(F)(F)F)n2)c2cc(-c3cn4nc(OC)sc4n3)oc2c1 (centres unmarked) [Example 146]
1.2	COc1cc(OCc2csc(N3CCN(c4ccccn4)CC3)n2)c2cc(-c3cn4nc(C)ccc4n3)oc2c1 [Example 263]
1.4	COCCN(CCOC)c1nc(COc2cc(OC)cc3oc(-c4cn5nc(C)ccc5n4)cc23)cs1 [Example 246]
0.35	COc1cc(OCc2csc(C3(O)CCC(=O)CC3)n2)c2cc(-c3cn4nc(OC)sc4n3)oc2c1 [Example 128, 4-Hydroxy-4-(4-(((6-methoxy-2-(2-methoxyimidazo[2,1-b][1,3,4]thiadiazol-6-yl)benzofuran-4-yl)oxy)methyl)thiazol-2-yl)cyclohexan-one]
1.3	COc1cc(OCc2nc(-c3ccc(C(=O)OC(C)(C)C)cc3)sc2C)c2cc(-c3cn4nc(OC)sc4n3)oc2c1 [Example 45, tert-Butyl 4-(4-(((6-methoxy-2-(2-methoxyimidazo[2,1-b][1,3,4]thiadiazol-6-yl)benzofuran-4-yl)oxy)methyl)-5-methylthiazol-2-yl)benzoate]
0.52	COc1cc(OCc2csc(-c3ccc(C(=O)N(C)C(C)(C)C)cc3)n2)c2cc(-c3cn4nc(OC)sc4n3)oc2c1 [Example 297]
0.67	CCC(O)(CC)c1nc(COc2cc(OC)cc3oc(-c4cn5nc(OC)sc5n4)cc23)cs1 [Example 140]
0.52	COc1cc(OCc2csc(C3(c4ccccc4F)CCOCC3)n2)c2cc(-c3cn4nc(OC)sc4n3)oc2c1 [Example 156, 6-(4-((2-(4-(2-Fluorophenyl)tetrahydro-2H-pyran-4-yl)thiazol-4-yl)methoxy)-6-methoxybenzofuran-2-yl)-2-methoxyimidazo[2,1-b][1,3,4]thiadiazole]
0.36	COc1cc(OCc2csc(N3CCN(S(=O)(=O)c4ccc(C#N)cc4)CC3)n2)c2cc(-c3cn4nc(OC)sc4n3)oc2c1 [Example 101, 4-((4-(4-(((6-Methoxy-2-(2-methoxyimidazo[2,1-b][1,3,4]thiadiazol-6-yl)benzofuran-4-yl)oxy)methyl)thiazol-2-yl)piperazin-1-yl)sulfonyl)benzonitrile]
0.89	COc1cc(OCc2nc(-c3ccc(C(N)=O)cc3)sc2C)c2cc(-c3cn4nc(OC)sc4n3)oc2c1 [Example 70]
3.3	COc1cc(OCc2csc(N3CCOCC3)n2)c2cc(-c3cn4nc(C)ccc4n3)oc2c1 [Example 215]
0.27	COc1cc(OCc2csc(C3(NS(=O)(=O)C(C)(C)C)CCOCC3)n2)c2cc(-c3cn4nc(OC)sc4n3)oc2c1 [Example 171, N-(4-(4-(((6-Methoxy-2-(2-methoxyimidazo[2,1-b][1,3,4]thiadiazol-6-yl)benzofuran-4-yl)oxy)methyl)thiazol-2-yl)tetrahydro-2H-pyran-4-yl)-2-methylpropane-2-sulfonamide]
0.58	COc1cc(OCc2csc(C3CCC(F)(F)CC3)n2)c2cc(-c3cn4nc(C)ccc4n3)oc2c1 [Example 239]
0.72	COc1cc(OCc2nc(N3CCOCC3)sc2C(F)(F)F)c2cc(-c3cn4nc(C)ccc4n3)oc2c1 [Example 220]
4.2	COc1cc(OCc2csc(Nc3cccc(C)c3)n2)c2cc(-c3cn4nc(C)ccc4n3)oc2c1 [Example 267]
0.79	COc1cc(OCc2csc(N3CC[S+]([O-])CC3)n2)c2cc(-c3cn4nc(OC)sc4n3)oc2c1 [Example 55]
